According to patent US10766884B2 (Pfizer Inc., priority 2018, dated 2020):
pIC50, pKi: −log10 of the molar value. Where a name gives a salt, the structure may show the parent alone.

How the values were obtained:
CDK4/Cyclin D1 = CDK4/Cyclin D1 (Homo sapiens (Human), UniProt P11802); assay: CDK4/Cyclin D1 mobility shift assay; assay type: biochemical; conditions: activated CDK4/Cyclin D1, 3.5 mM ATP, Morrison fit; read-out: CDK4D1 Ki
CDK6/Cyclin D3 = CDK6/Cyclin D3 (Homo sapiens (Human), UniProt Q00534); assay: CDK6/Cyclin D3 mobility shift assay; assay type: biochemical; conditions: activated CDK6/Cyclin D3, 3.5 mM ATP, Morrison fit; read-out: CDK6_D3 Ki
CDK6/Cyclin D3, sequence (Q00534 whole entry): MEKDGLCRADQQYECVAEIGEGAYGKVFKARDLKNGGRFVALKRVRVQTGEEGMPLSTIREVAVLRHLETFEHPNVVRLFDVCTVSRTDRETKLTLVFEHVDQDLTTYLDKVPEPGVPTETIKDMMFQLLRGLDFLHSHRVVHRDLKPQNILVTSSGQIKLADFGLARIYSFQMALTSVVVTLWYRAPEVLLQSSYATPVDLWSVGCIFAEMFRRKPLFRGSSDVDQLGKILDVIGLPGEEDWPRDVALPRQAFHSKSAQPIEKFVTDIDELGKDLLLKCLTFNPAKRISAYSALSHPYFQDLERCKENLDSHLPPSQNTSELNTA
CDK6/Cyclin D3, sequence (P30281 whole entry partner): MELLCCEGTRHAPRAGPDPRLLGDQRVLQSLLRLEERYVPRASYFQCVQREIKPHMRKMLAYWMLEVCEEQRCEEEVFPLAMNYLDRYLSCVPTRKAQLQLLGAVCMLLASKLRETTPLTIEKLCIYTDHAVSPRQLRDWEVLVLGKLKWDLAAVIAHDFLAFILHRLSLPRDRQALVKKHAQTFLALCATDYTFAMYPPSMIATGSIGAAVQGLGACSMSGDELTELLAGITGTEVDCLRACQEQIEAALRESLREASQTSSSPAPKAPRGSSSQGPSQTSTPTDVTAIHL

CDK4 = CDK4 (Homo sapiens (Human), UniProt P11802); assay: Phospho-Serine 795 Rb ELISA assay in JEKO-1 cells; assay type: cell-based; conditions: overnight treatment, phospho-Rb S795, read-out: CDK4 pRB S795 ELISA JEKO-1 cells IC50
CDK4, sequence (P11802 2-303): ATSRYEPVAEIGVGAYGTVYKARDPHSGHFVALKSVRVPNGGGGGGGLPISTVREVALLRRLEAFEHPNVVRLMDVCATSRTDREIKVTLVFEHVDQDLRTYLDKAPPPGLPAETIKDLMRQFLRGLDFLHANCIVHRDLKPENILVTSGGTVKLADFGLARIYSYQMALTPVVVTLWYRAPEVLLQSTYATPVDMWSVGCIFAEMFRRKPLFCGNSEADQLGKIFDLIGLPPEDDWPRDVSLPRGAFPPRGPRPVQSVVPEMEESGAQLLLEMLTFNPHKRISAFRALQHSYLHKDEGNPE
CDK4, sequence (P24385 whole entry partner): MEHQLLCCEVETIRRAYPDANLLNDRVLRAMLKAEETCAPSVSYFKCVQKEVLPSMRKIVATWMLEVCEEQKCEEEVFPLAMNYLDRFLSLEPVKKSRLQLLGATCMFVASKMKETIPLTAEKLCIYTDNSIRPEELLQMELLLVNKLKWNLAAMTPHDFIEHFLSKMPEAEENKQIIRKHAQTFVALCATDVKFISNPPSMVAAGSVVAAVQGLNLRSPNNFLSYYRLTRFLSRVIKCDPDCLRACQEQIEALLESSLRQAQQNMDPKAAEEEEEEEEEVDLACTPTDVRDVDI

CDK6 = CDK6 (Homo sapiens (Human), UniProt Q00534); assay: Phospho-Serine 795 Rb ELISA assay in MV4-11 cells; assay type: cell-based; conditions: overnight treatment, phospho-Rb S795, read-out: CDK6 pRB S795 ELISA MV4-11 cells IC50
CDK6, sequence (Q00534 whole entry): as the sequence (Q00534 whole entry) above
CDK6, sequence (P30281 whole entry partner): as the sequence (P30281 whole entry partner) above

CDK4/Cyclin D1, sequence (P11802 whole entry): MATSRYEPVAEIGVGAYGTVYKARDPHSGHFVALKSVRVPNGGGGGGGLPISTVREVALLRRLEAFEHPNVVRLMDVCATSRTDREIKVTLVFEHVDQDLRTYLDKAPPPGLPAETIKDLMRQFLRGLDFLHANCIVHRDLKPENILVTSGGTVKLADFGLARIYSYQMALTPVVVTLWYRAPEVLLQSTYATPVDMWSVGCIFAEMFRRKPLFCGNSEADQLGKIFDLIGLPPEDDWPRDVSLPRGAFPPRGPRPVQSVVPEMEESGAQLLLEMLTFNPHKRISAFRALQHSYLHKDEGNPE
CDK4/Cyclin D1, sequence (P24385 whole entry partner): as the sequence (P24385 whole entry partner) above

Compound `Cc1nc2c(F)cc(-c3nc(N[C@@H]4CCN(S(C)(=O)=O)C[C@H]4O)ncc3C#N)cc2n1C(C)C` [Example B01, 4-[4-fluoro-2-methyl-1-(propan-2-yl)-1H-benzimidazol-6-yl]-2-{[(3R,4R)-3-hydroxy-1-(methanesulfonyl)piperidin-4-yl]amino}pyrimidine-5-carbonitrile] has a pKi (CDK4/Cyclin D1) of 10.00, a pKi (CDK6/Cyclin D3) of 8.82 and a pIC50 (CDK4) of 7.18. It also gave a pIC50 (CDK6) of 6.89.

`Cc1nc2cc(Cl)c(-c3nc(N[C@@H]4CCN(S(C)(=O)=O)C[C@H]4O)ncc3F)cc2n1C(C)C` [Example C01, (3R,4R)-4-({4-[5-chloro-2-methyl-1-(propan-2-yl)-1H-benzimidazol-6-yl]-5-fluoropyrimidin-2-yl}amino)-1-(methanesulfonyl)piperidin-3-ol] gave a pKi (CDK4/Cyclin D1) of 8.28, a pKi (CDK6/Cyclin D3) of 7.01 and a pIC50 (CDK4) of 6.75. The pIC50 (CDK6) was 5.86.

With `CC(C)n1c(C2CNC2)nc2c(F)cc(-c3nc(N[C@@H]4CCOC[C@H]4O)ncc3Cl)cc21` [Example C02, 1,5-anhydro-3-({4-[2-(azetidin-3-yl)-4-fluoro-1-(propan-2-yl)-1H-benzimidazol-6-yl]-5-chloropyrimidin-2-yl}amino)-2,3-dideoxy-D-threo-pentitol] the pKi (CDK4/Cyclin D1) was 8.39, the pKi (CDK6/Cyclin D3) was 7.05 and the pIC50 (CDK4) was 6.23. For the same compound, the pIC50 (CDK6) was 5.87.

Work on `Cc1nc2ccc(-c3cc(N[C@@H]4CCN(S(C)(=O)=O)C[C@H]4O)ncc3Cl)nc2n1C(C)C` [Example D04, (3R,4R)-4-({5-chloro-4-[2-methyl-3-(propan-2-yl)-3H-imidazo[4,5-b]pyridin-5-yl]pyridin-2-yl}amino)-1-(methanesulfonyl)piperidin-3-ol] yielded a pKi (CDK4/Cyclin D1) of 9.22, a pKi (CDK6/Cyclin D3) of 7.90 and a pIC50 (CDK4) of 7.17. It also gave a pIC50 (CDK6) of 6.76.

For `Cc1nc2ccc(-c3cc(N[C@@H]4CCOC[C@H]4O)ncc3Cl)nc2n1C(C)C` [Example D05, 1,5-anhydro-3-({5-chloro-4-[2-methyl-3-(propan-2-yl)-3H-imidazo[4,5-b]pyridin-5-yl]pyridin-2-yl}amino)-2,3-dideoxy-D-threo-pentitol], the pKi (CDK4/Cyclin D1) was 8.66, the pKi (CDK6/Cyclin D3) was 7.40 and the pIC50 (CDK4) was 7.07. It also gave a pIC50 (CDK6) of 6.59.

For `COC(=O)N1CC[C@@H](Nc2ncc(F)c(-c3cc(F)c4nc(C)n(C(C)C)c4c3)n2)[C@H](O)C1` [Example F01, methyl (3R,4R)-4-({5-fluoro-4-[4-fluoro-2-methyl-1-(propan-2-yl)-1H-benzimidazol-6-yl]pyrimidin-2-yl}amino)-3-hydroxypiperidine-1-carboxylate], the pKi (CDK4/Cyclin D1) was 9.10, the pKi (CDK6/Cyclin D3) was 7.84 and the pIC50 (CDK4) was 6.94. The pIC50 (CDK6) was 6.24.

`CC(C)(C)n1cnc2c(F)cc(-c3nc(N[C@@H]4CCN(CCO)C[C@H]4O)ncc3Cl)cc21` [Example F05, (3R,4R)-4-{[4-(1-tert-butyl-4-fluoro-1H-benzimidazol-6-yl)-5-chloropyrimidin-2-yl]amino}-1-(2-hydroxyethyl)piperidin-3-ol formic acid salt] was tested, and the pKi (CDK4/Cyclin D1) was 8.68, the pKi (CDK6/Cyclin D3) was 7.59 and the pIC50 (CDK4) was 6.61. For the same compound, the pIC50 (CDK6) was 6.32.

With `CN(C)CCN1CC[C@@H](Nc2ncc(Cl)c(-c3cc(F)c4ncn(C(C)(C)C)c4c3)n2)[C@H](O)C1` [Example F06, (3R,4R)-4-{[4-(1-tert-butyl-4-fluoro-1H-benzimidazol-6-yl)-5-chloropyrimidin-2-yl]amino}-1-[2-(dimethylamino)ethyl]piperidin-3-ol formic acid salt] the pKi (CDK4/Cyclin D1) was 8.82, the pKi (CDK6/Cyclin D3) was 7.56 and the pIC50 (CDK4) was 6.79. It also gave a pIC50 (CDK6) of 6.87.

`CCS(=O)(=O)N1CC[C@@H](Nc2ncc(Cl)c(-c3cc(F)c4nc(C)n(C5COC5)c4c3)n2)[C@H](O)C1` [Example F08, (3R,4R)-4-({5-chloro-4-[4-fluoro-2-methyl-1-(oxetan-3-yl)-1H-benzimidazol-6-yl]pyrimidin-2-yl}amino)-1-(ethanesulfonyl)piperidin-3-ol] gave a pKi (CDK4/Cyclin D1) of 9.30, a pKi (CDK6/Cyclin D3) of 7.94 and a pIC50 (CDK4) of 6.96. The pIC50 (CDK6) was 6.51.

`CC(=O)N1CC[C@@H](Nc2ncc(F)c(-c3cc(F)c4nc(C)n(C(C)C)c4c3)n2)[C@H](O)C1` [Example F16, 1-[(3R,4R)-4-({5-fluoro-4-[4-fluoro-2-methyl-1-(propan-2-yl)-1H-benzimidazol-6-yl]pyrimidin-2-yl}amino)-3-hydroxypiperidin-1-yl]ethan-1-one] was tested, and the pKi (CDK4/Cyclin D1) was 8.85, the pKi (CDK6/Cyclin D3) was 7.59 and the pIC50 (CDK4) was 6.17. It also gave a pIC50 (CDK6) of 6.44.

`Cc1nc2c(F)cc(-c3nc(N[C@@H]4CCN(C(=O)CO)C[C@H]4O)ncc3F)cc2n1C(C)C` [Example F17, 1-[(3R,4R)-4-({5-fluoro-4-[4-fluoro-2-methyl-1-(propan-2-yl)-1H-benzimidazol-6-yl]pyrimidin-2-yl}amino)-3-hydroxypiperidin-1-yl]-2-hydroxyethan-1-one] was tested, and the pKi (CDK4/Cyclin D1) was 9.30, the pKi (CDK6/Cyclin D3) was 8.08 and the pIC50 (CDK4) was 7.08. It also gave a pIC50 (CDK6) of 6.90.

Compound `CC(C)n1cnc2c(Cl)cc(-c3nc(N[C@@H]4CCN(C(=O)[C@@H](C)O)C[C@H]4O)ncc3Cl)cc21` [Example F20, (2R)-1-[(3R,4R)-4-({5-chloro-4-[4-chloro-1-(propan-2-yl)-1H-benzimidazol-6-yl]pyrimidin-2-yl}amino)-3-hydroxypiperidin-1-yl]-2-hydroxypropan-1-one] has a pKi (CDK4/Cyclin D1) of 8.70, a pKi (CDK6/Cyclin D3) of 7.61 and a pIC50 (CDK4) of 6.81. For the same compound, the pIC50 (CDK6) was 6.10.

In the case of `C[C@H](O)C(=O)N1CC[C@@H](Nc2ncc(Cl)c(-c3cc(F)c4ncn(C(C)(C)C)c4c3)n2)[C@H](O)C1` [Example F21, (2S)-1-[(3R,4R)-4-{[4-(1-tert-butyl-4-fluoro-1H-benzimidazol-6-yl)-5-chloropyrimidin-2-yl]amino}-3-hydroxypiperidin-1-yl]-2-hydroxypropan-1-one], the pKi (CDK4/Cyclin D1) was 9.40, the pKi (CDK6/Cyclin D3) was 8.11 and the pIC50 (CDK4) was 7.23. It also gave a pIC50 (CDK6) of 6.61.

`CC(C)(C)n1cnc2ccc(-c3cc(N[C@@H]4CCN(C(=O)CO)C[C@H]4O)ncc3Cl)nc21` [Example F22, 1-[(3R,4R)-4-{[4-(3-tert-butyl-3H-imidazo[4,5-b]pyridin-5-yl)-5-chloropyridin-2-yl]amino}-3-hydroxypiperidin-1-yl]-2-hydroxyethan-1-one] showed a pKi (CDK4/Cyclin D1) of 9.30, a pKi (CDK6/Cyclin D3) of 8.04 and a pIC50 (CDK4) of 7.21. It also gave a pIC50 (CDK6) of 6.77.

With `CNCC(=O)N1CC[C@@H](Nc2ncc(F)c(-c3cc(F)c4nc(C)n(C(C)C)c4c3)n2)[C@H](O)C1` [Example F23, 1-[(3R,4R)-4-({5-fluoro-4-[4-fluoro-2-methyl-1-(propan-2-yl)-1H-benzimidazol-6-yl]pyrimidin-2-yl}amino)-3-hydroxypiperidin-1-yl]-2-(methylamino)ethan-1-one] the pKi (CDK4/Cyclin D1) was 9.00, the pKi (CDK6/Cyclin D3) was 7.96 and the pIC50 (CDK4) was 6.16. The pIC50 (CDK6) was 5.88.

Work on `CNCC(=O)N1CC[C@@H](Nc2ncc(Cl)c(-c3cc(F)c4ncn(C(C)(C)C)c4c3)n2)[C@H](O)C1` [Example F25, 1-[(3R,4R)-4-{[4-(1-tert-butyl-4-fluoro-1H-benzimidazol-6-yl)-5-chloropyrimidin-2-yl]amino}-3-hydroxypiperidin-1-yl]-2-(methylamino)ethan-1-one] yielded a pKi (CDK4/Cyclin D1) of 8.92, a pKi (CDK6/Cyclin D3) of 7.71 and a pIC50 (CDK4) of 6.34. The pIC50 (CDK6) was 6.34.

For `CC(C)(C)n1cnc2c(F)cc(-c3nc(N[C@@H]4CCN(C(=O)C5(F)CNC5)C[C@H]4O)ncc3Cl)cc21` [Example F26, [(3R,4R)-4-{[4-(1-tert-butyl-4-fluoro-1H-benzimidazol-6-yl)-5-chloropyrimidin-2-yl]amino}-3-hydroxypiperidin-1-yl](3-fluoroazetidin-3-yl)methanone], the pKi (CDK4/Cyclin D1) was 10.00, the pKi (CDK6/Cyclin D3) was 8.34 and the pIC50 (CDK4) was 6.85. It also gave a pIC50 (CDK6) of 6.74.

With `CC(C)n1cnc2c(F)cc(-c3nc(N[C@@H]4CCN(C(=O)C5(F)CNC5)C[C@H]4O)ncc3Cl)cc21` [Example F27, [(3R,4R)-4-({5-chloro-4-[4-fluoro-1-(propan-2-yl)-1H-benzimidazol-6-yl]pyrimidin-2-yl}amino)-3-hydroxypiperidin-1-yl](3-fluoroazetidin-3-yl)methanone] the pKi (CDK4/Cyclin D1) was 9.30, the pKi (CDK6/Cyclin D3) was 8.29 and the pIC50 (CDK4) was 7.22. For the same compound, the pIC50 (CDK6) was 6.73.

With `CC(C)n1cnc2c(F)cc(-c3nc(N[C@@H]4CCN(C(=O)C5(N)CC5)C[C@H]4O)ncc3Cl)cc21` [Example F28, (1-aminocyclopropyl)[(3R,4R)-4-({5-chloro-4-[4-fluoro-1-(propan-2-yl)-1H-benzimidazol-6-yl]pyrimidin-2-yl}amino)-3-hydroxypiperidin-1-yl]methanone] the pKi (CDK4/Cyclin D1) was 8.66, the pKi (CDK6/Cyclin D3) was 7.65 and the pIC50 (CDK4) was 6.72. For the same compound, the pIC50 (CDK6) was 6.13.

`CC(C)n1cnc2c(F)cc(-c3nc(N[C@@H]4CCN(C(=O)C5(N)CC(F)(F)C5)C[C@H]4O)ncc3Cl)cc21` [Example F29, (1-amino-3,3-difluorocyclobutyl)[(3R,4R)-4-({5-chloro-4-[4-fluoro-1-(propan-2-yl)-1H-benzimidazol-6-yl]pyrimidin-2-yl}amino)-3-hydroxypiperidin-1-yl]methanone] was tested, and the pKi (CDK4/Cyclin D1) was 8.74, the pKi (CDK6/Cyclin D3) was 7.63 and the pIC50 (CDK4) was 6.61. For the same compound, the pIC50 (CDK6) was 6.19.

`CC(C)(C)n1cnc2c(F)cc(-c3nc(N[C@@H]4CCN(C(=O)C5(N)CC(F)(F)C5)C[C@H]4O)ncc3Cl)cc21` [Example F30, (1-amino-3,3-difluorocyclobutyl)[(3R,4R)-4-{[4-(1-tert-butyl-4-fluoro-1H-benzimidazol-6-yl)-5-chloropyrimidin-2-yl]amino}-3-hydroxypiperidin-1-yl]methanone] gave a pKi (CDK4/Cyclin D1) of 9.30, a pKi (CDK6/Cyclin D3) of 7.90 and a pIC50 (CDK4) of 7.18. The pIC50 (CDK6) was 6.42.

`CC(C)(C)n1cnc2c(F)cc(-c3cc(N[C@@H]4CCN(C(=O)C(F)(F)CN)C[C@H]4O)ncc3Cl)cc21` [Example F32, 3-amino-1-[(3R,4R)-4-{[4-(1-tert-butyl-4-fluoro-1H-benzimidazol-6-yl)-5-chloropyridin-2-yl]amino}-3-hydroxypiperidin-1-yl]-2,2-difluoropropan-1-one] gave a pKi (CDK4/Cyclin D1) of 9.05, a pKi (CDK6/Cyclin D3) of 7.89 and a pIC50 (CDK4) of 6.77. The pIC50 (CDK6) was 6.20.
